{"source": "patent US20200333357A1", "about": "“NOVEL TFEB PATHWAY AGONISTS FOR METABOLIC DISEASES AND AGEING” (The Board of Regents of the University of Texas System, priority 2017, published 2020)", "key": {"TFEB": {"tested_on": "TFEB", "assay": "GFP-TFEB nuclear translocation (high-content screen, dose-response, confocal imaging)", "assay_type": "cell-based, human", "conditions": "for TFEB nuclear accumulation by AMPK activators: GFP-TFEB HeLa cells; for hit status in the TFEB screen overlapping with the autophagy (GFP-LC3) screen: compounds added for 4 hr, overlap with top 30 hits of autophagy screen", "method": "GFP-TFEB HeLa cells were seeded in 384-well plates. Compounds were added for 4 hr the following day. Bafilomycin A1 (250 nM) treated cells were used as positive controls and DMSO-treated cells as negative controls. […] Images were collected using 405 nm and 488 nm laser lines with DAPI and FITC emission filters. Images were analyzed using the GE IN Cell Analyzer Workstation software. Briefly, nuclei were segmented using the Hoechst channel and the cytoplasm was segmented using the GFP channel. For each cell, the mean GFP intensity in each compartment was measured and used to calculate the nuclear to cytoplasmic (N/C) TFEB-GFP ratio. The same method as mentioned above was used to generate the top 30 compounds with highest condensed activity values and robust Z score values.\nGFP-TFEB HeLa cells treated with compounds or DMSO were fixed and stained with Hoechst. Images from at least 3 different fields per sample were acquired using a 40× objective on a Zeiss confocal microscope and analyzed with ImageJ. 20-30 cells were evaluated from each image for each sample, and 3 independent experiments were performed to generate the graphed values."}, "HeLa cells": {"tested_on": "HeLa cells", "assay": "Cellular ROS level (CellROX Green)", "assay_type": "cell-based, human", "conditions": "4 hrs", "from_the_text": "SFIGS. 5A-I. Small-molecule activators of TFEB engage different sources of Ca. (SFIG. 5A) HeLa cells were pretreated with or without N-acetyl-cysteine (NAC) for 1 hr and then treated with tert-butyl hydroperoxide (TBHP) or AD for 4 hrs. TBHP and NAC were used as positive and negative controls. A ROS-sensitive DNA dye CellROX Green was used to detect cellular ROS levels after these treatments. Endogenous TFEB localization was also shown. (SFIG. 5B) Quantification of the fluorescent intensity of CellROX Green in cells treated as in a was done by a plate reader. (SFIG. 5C) Quantification of endogenous TFEB nuclear translocation in SFIG. 5A. (SFIG. 5D) Cells were pretreated with or without 25 μM IP3R inhibitor Xestosporine C (Xesto) for 1 hr and then treated with DG, AD and IKA for indicated time. Quantification of TFEB translocation was shown in SFIG. 5E-G (graphs represent mean±s.d. **p<0.01, ***p<0.001, ****p<0.0001). (SFIG. 5H-I) RNA-interference were used to knock down inositol […] receptor type 1 (IP3R1) in GFP-TFEB cells before they were treated with DG, AD and IKA. siLONRF1 was used as a negative control. TFEB translocation percentage was quantified from images as shown in SFIG. 5I (mean±s.d. for n=3 independent experiments, ****p<0.0001). Scale bar, 20 μm."}, "[1]": {"tested_on": "mice under fed and fast conditions", "assay": "Short-term starvation and chloroquine-induced acute hepatic lipid accumulation in mice", "assay_type": "in vivo, mouse", "conditions": "overnight fast; CQ intraperitoneal; DG oral co-administration", "method": "SFIGS. […] (SFIG. 6A) The body weight (left y-axis, solid symbols) and food intake (right y-axis, open symbols) measured in normal-diet-fed mice treated with vehicle or 2.5 mg/kg DG. (SFIG. 6B) Drug release curves of AD (upper panel) and IKA (lower panel) in PBS. […] (SFIG. 6F) Cells were treated with various doses DG, AD and IKA for 4 hours, and cell viability was measured immediately or after 72 hours. Dose response curves were simulated using ImageJ. (SFIG. 6G) H&E staining of heart, spleen and kidney sections from mice treated with DG, AD, IKA and their corresponding controls. Scale bar, 100 μm. (SFIG. 6H) H&E staining of liver and heart sections as well as ORO and p62/SQSTM1 IHC staining of liver sections from mice under fed and fast conditions with orally injected DG and intraperitoneally injected CQ, individually and jointly, or their corresponding control (Saline). Scale bar, 50 μm. (SFIG. 6I) The body weight of mice after the treatment described in SFIG. 6H. (SFIGS. 6J-L) Total serum levels of triglyceride, cholesterol and glucose of mice after the treatment described in SFIG. 6G."}, "mTORC1": {"tested_on": "mTORC1", "assay": "TSC2 dependence of mTORC1 inhibition and TFEB activation in p53-/- and p53-/-, TSC2-/- MEFs", "assay_type": "cell-based, mouse", "conditions": "p53-/- vs p53-/-"}}, "note": "“Also recorded” adds a separate entry of the source."}
{"compound": "NC(=O)c1ncn([C@@H]2O[C@H](COP(=O)(O)O)[C@@H](O)[C@H]2O)c1N", "note": "[AICAR, 5-aminoimidazole-4-carboxamide ribonucleotide, reference compound]", "values": [{"measurement": "TFEB nuclear accumulation by AMPK activators", "setting": "TFEB", "result": "sufficient to induce TFEB nuclear accumulation"}]}
{"compound": "C[C@@H]1C[C@@H]([C@H](O)CC2CC(=O)NC(=O)C2)C(=O)[C@@H](C)C1", "note": "[cycloheximide, reference compound]", "values": [{"measurement": "hit status in the TFEB screen overlapping with the autophagy (GFP-LC3) screen", "setting": "TFEB", "result": "top 18 hits"}]}
{"compound": "CN(C)C(=N)N=C(N)N", "note": "[metformin, reference compound]", "values": [{"measurement": "TFEB nuclear accumulation by AMPK activators", "setting": "TFEB", "result": "sufficient to induce TFEB nuclear accumulation"}]}
{"compound": "CC(C)(C)OO", "note": "[TBHP, tert-Butyl hydroperoxide, reference compound]", "values": [{"measurement": "ROS production", "setting": "HeLa cells", "result": "comparable ROS production"}]}
{"compound": "CCN(CC)CCCC(C)Nc1ccnc2cc(Cl)ccc12", "note": "(stereo not shown) [CQ, chloroquine]", "values": [{"measurement": "fast-induced hepatic lipid accumulation", "setting": "[1]", "result": "exacerbated"}]}
{"compound": "C[C@@H]1O[C@@H](O[C@@H]2C=C3CC[C@@H]4[C@H](CC[C@]5(C)[C@@H](c6ccc(=O)oc6)CC[C@]45O)[C@@]3(C)CC2)[C@H](O)[C@H](O)[C@H]1O", "note": "[proscillaridin A, reference compound]", "values": [{"measurement": "dependence of mTORC1 inhibition / TFEB activation on TSC2", "setting": "mTORC1", "result": "independent"}, {"measurement": "hit status in the TFEB screen overlapping with the autophagy (GFP-LC3) screen", "setting": "TFEB", "result": "top 18 hits; also recorded: top scoring hits"}]}
